Calls of active or inactive are those of the source. No cut-off for these calls is given here.
Assays:
[1] = tested on: Influenza A virus; test: Antiviral activity against Influenza A virus (A/Texas/36/1991(H1N1)) infected in BALB/c mouse assessed as animal survival at 750 mg/kg, po administered via gavage as three doses at 8, 32 and 56 hrs post infection (reference value: 0%); assay type: functional
[2] = tested on: dengue virus type 2; test: Antiviral activity against Dengue virus 2 S221 infected in DENV antibody dependent enhancement AG129 mouse model assessed as reduction in TNF-alpha level at 750 mg/kg, po administered via gavage as single dose at 36 hrs post infection measured at 60 hrs post-infection by electrochemiluminescence based method; assay type: functional, organism-based
[3] = tested on: dengue virus type 2; test: Antiviral activity against Dengue virus 2 S221 infected in DENV antibody dependent enhancement AG129 mouse model assessed as reduction in KC-GRO level at 750 mg/kg, po administered via gavage as two doses at 36 hrs and 52 hrs post infection measured at 72 hrs post-infection by electrochemiluminescence based method; assay type: functional, organism-based
[4] = tested on: Influenza A virus; test: Antiviral activity against Influenza A virus (A/Texas/36/1991(H1N1)) infected in BALB/c mouse assessed as animal survival at 250 mg/kg, po administered via gavage as single dose at 8 hrs post infection (reference value: 0%); assay type: functional
[5] = tested on: Influenza A virus; test: Antiviral activity against Influenza A virus (A/Texas/36/1991(H1N1)) infected in BALB/c mouse assessed as animal survival at 750 mg/kg, po administered via gavage as single dose at 16 hrs post infection (reference value: 0%); assay type: functional
[6] = tested on: Influenza A virus; test: Antiviral activity against Influenza A virus (A/Texas/36/1991(H1N1)) infected in BALB/c mouse assessed as median death time at 500 mg/kg, po administered via gavage as two doses at 8 hrs and 32 hrs post infection (reference value: 9 days); assay type: functional
[7] = tested on: Influenza A virus; test: Antiviral activity against Influenza A virus (A/Texas/36/1991(H1N1)) infected in BALB/c mouse assessed as animal survival at 750 mg/kg, po administered via gavage as single dose at 8 hrs post infection (reference value: 0%); assay type: functional
[8] = tested on: dengue virus type 2; test: Antiviral activity against Dengue virus 2 S221 infected in DENV antibody dependent enhancement AG129 mouse model assessed as animal survival at 375 mg/kg, po administered via gavage as two doses at 8 and 24 hrs post infection (reference value: 4%); assay type: functional
[9] = tested on: Mus musculus; test: In vivo inhibition of ERGlu1 in BALB/c mouse assessed as increase in tri-glucosylated FOS level in serum at >250 mg/kg, po administered via gavage as single dose at 8 hrs post-infection measured at 8 hrs post-dose by NP-HPLC analysis; assay type: functional, organism-based
[10] = tested on: dengue virus type 2; test: Antiviral activity against Dengue virus 2 S221 infected in DENV antibody dependent enhancement AG129 mouse model assessed as reduction in KC-GRO level at 750 mg/kg, po administered via gavage as single dose at 36 hrs post infection measured at 72 hrs post-infection by electrochemiluminescence based method; assay type: functional, organism-based
[11] = tested on: dengue virus type 2; test: Antiviral activity against Dengue virus 2 S221 infected in DENV antibody dependent enhancement AG129 mouse model assessed as animal survival at 250 mg/kg, po administered via gavage as two doses at 8 and 24 hrs post infection (reference value: 4%); assay type: functional
[12] = tested on: dengue virus type 2; test: Antiviral activity against Dengue virus 2 S221 infected in DENV antibody dependent enhancement AG129 mouse model assessed as reduction in KC-GRO level at 750 mg/kg, po administered via gavage as single dose at 36 hrs post infection measured at 60 hrs post-infection by electrochemiluminescence based method; assay type: functional, organism-based
[13] = tested on: dengue virus type 2; test: Antiviral activity against Dengue virus 2 S221 infected in DENV antibody dependent enhancement AG129 mouse model assessed as reduction in TNF-alpha level at 750 mg/kg, po administered via gavage as single dose at 36 hrs post infection measured at 52 hrs post-infection by electrochemiluminescence based method; assay type: functional, organism-based
[14] = Half life in BALB/c mouse at 5 mg/kg, iv or 200 mg/kg, po measured upto 48 hrs by LC-MS/MS analysis; assay type: ADME, organism-based; conditions: in vivo
[15] = tested on: Influenza A virus; test: Antiviral activity against Influenza A virus (A/Texas/36/1991(H1N1)) infected in BALB/c mouse assessed as animal survival at 750 mg/kg, po administered via gavage as single dose at 24 hrs post infection (reference value: 0%); assay type: functional
[16] = tested on: Influenza A virus; test: Antiviral activity against Influenza A virus (A/Texas/36/1991(H1N1)) infected in BALB/c mouse assessed as animal survival at 500 mg/kg, po administered via gavage as single dose at 16 hrs post infection (reference value: 0%); assay type: functional
[17] = tested on: dengue virus type 2; test: Antiviral activity against Dengue virus 2 S221 infected in DENV antibody dependent enhancement AG129 mouse model assessed as reduction in IFN-gamma level at 750 mg/kg, po administered via gavage as two doses at 36 hrs and 52 hrs post infection measured at 72 hrs post-infection by electrochemiluminescence based method; assay type: functional, organism-based
[18] = tested on: Influenza A virus; test: Antiviral activity against Influenza A virus (A/Texas/36/1991(H1N1)) infected in BALB/c mouse assessed as median death time at 250 mg/kg, po administered via gavage as three dosed at 8, 32 and 56 hrs post infection (reference value: 8 days); assay type: functional
[19] = tested on: dengue virus type 2; test: Antiviral activity against Dengue virus 2 S221 infected in DENV antibody dependent enhancement AG129 mouse model assessed as animal survival at 750 mg/kg, po administered via gavage as two doses at 48 and 64 hrs post infection (reference value: 4%); assay type: functional
[20] = tested on: Mus musculus; test: In vivo inhibition of ERGlu1 in BALB/c mouse assessed as increase in mono-glucosylated FOS level in serum at 100 to 1000 mg/kg, po administered via gavage at 8 hrs post-infection and measured at 8 hrs post-dose by NP-HPLC analysis; assay type: functional, organism-based
[21] = tested on: Influenza A virus; test: Antiviral activity against Influenza A virus (A/Texas/36/1991(H1N1)) infected in BALB/c mouse assessed as median death time at 100 mg/kg, po administered via gavage starting at 8 hrs post-infection and continuing TID for 5 days; assay type: functional
[22] = tested on: dengue virus type 2; test: Antiviral activity against Dengue virus 2 S221 infected in DENV antibody dependent enhancement AG129 mouse model assessed as animal survival at 375 mg/kg, po administered via gavage as two doses at 24 and 40 hrs post infection (reference value: 4%); assay type: functional
[23] = tested on: Mus musculus; test: In vivo inhibition of ERGlu1 in BALB/c mouse assessed as increase in mono-glucosylated FOS level in spleen at 100 to 1000 mg/kg, po administered via gavage at 8 hrs post-infection and measured at 8 hrs post-dose by NP-HPLC analysis; assay type: functional, organism-based
[24] = tested on: Influenza A virus; test: Antiviral activity against Influenza A virus (A/PA/10/2010 (H3N2)) infected in BALB/c mouse assessed as increase in animal survival rate at >250 mg/kg, po administered via gavage as single dose at 8 hrs post infection; assay type: functional, organism-based
[25] = tested on: Influenza A virus; test: Antiviral activity against Influenza A virus (A/Texas/36/1991(H1N1)) infected in BALB/c mouse assessed as animal survival at 250 mg/kg, po administered via gavage as two doses at 8 and 32 hrs post infection (reference value: 0%); assay type: functional

## COCCCCCCCCCN1C[C@H](O)[C@@H](O)[C@H](O)[C@H]1CO.Cl
[1]
  survival at 750 mg/kg: 100%
[2]
  Activity: Active
[3]
  Activity: Active
[4]
  survival at 250 mg/kg: 30%
[5]
  survival at 750 mg/kg: 70%
[6]
  Time: >14 days
[7]
  survival at 750 mg/kg: 80%
[8]
  survival at 375 mg/kg: 82%
[9]
  inhibition: Active
[10]
  Activity: Active
[11]
  survival at 250 mg/kg: 86%
[12]
  Activity: Active
[13]
  Activity: Active
[14]
  half-life: 5 h
[15]
  survival at 750 mg/kg: 30%
[16]
  survival at 500 mg/kg: 40%
[17]
  Activity: Active
[18]
  Time: 9.5 days
[19]
  survival at 750 mg/kg: 100%
[20]
  inhibition: Active
[21]
  Time: >14 days
[22]
  survival at 375 mg/kg: 100%
[23]
  inhibition: Active
[24]
  Activity: Active
[25]
  survival at 250 mg/kg: 60%
